Experimental findings from publication PMC9071858, “Comparative Pharmacokinetics of Seven Major Compounds in Normal and Atherosclerosis Mice after Oral Administration of Simiao Yong'an Decoction” (Evidence-based Complementary and Alternative Medicine : eCAM, 2022) are described below.

Each structure is given as a SMILES string.

Data set [1] is described as follows: Pharmacokinetic study in atherosclerosis (AS) model ApoE−/− mice after oral administration of SMYAD. In kind it is in vivo, mouse. As to the method: (§1) Male C57BL/6J mice and ApoE^−/− mice on a C57BL/6 background (7 weeks old, 18–22 g) were purchased from Beijing Vital River Laboratory Animal Technology Co., Ltd. (Beijing, China, Certificate No.: SCXK (Jing) 2016-0006). All the mice were kept in an SPF animal house (Dongzhimen Hospital Affiliated to Beijing University of Chinese Medicine, Certificate No.: SYXK (Jing) 2015-0001) with food and water freely available, 12 h light/dark, and environmental conditions of 22°C–24°C, 50% relative humidity. All protocols of animal experiments were performed in accordance with the National Guidelines for Laboratory Animal Welfare and were approved by the Animal Ethics Committee of Beijing University of Chinese Medicine (NO. BUCM-4-2015071701-3001). High-fat feeding (containing 15% fat and 0.25% cholesterol) was provided by Beijing HFK bioscience CO., LTD. (Beijing, China, Certificate No.: SCXK (Jing) 2014-0018).
The AS model was established by a high-fat diet and perivascular carotid collar placement (PCCP) surgery in the ApoE^−/− mice. After a 7-day adaptive feeding, the mice were given a high-fat diet for 2 weeks; before anesthesia, all ApoE^−/− mice were fasted for 12 hours. During the surgery, the right common carotid artery was exposed, and a silicone cannula (length: 2.5 mm, inner diameter: 0.3 mm) was fixed around the carotid artery (external diameter: about 0.5 mm). Penicillin was injected intraperitoneally for 3 days after surgery to prevent infection. High-fat diet continued for 8 weeks after surgery to establish AS model. Biochemical assays and hematoxylin and eosin (HE) staining were used to evaluate whether AS model was successfully established.
(§2) After successful induction of AS model, SMYAD was administered to NC and AS mice by intragastric gavage at the crude drug dose of 35 g/kg/d for seven days. Blood samples were collected from each mouse in heparinized tubes via the postorbital venous plexus veins at 0, 0.25, 0.5, 1, 2, 4, 6, 8, 10, 12, 18, and 24 h after seven days of drug administration. Then blood samples were immediately centrifuged at 3500 rpm at 4°C for 10 min and the plasma was stored at −80°C until use.
(§3) Each plasma sample (100 μL) was mixed with a threefold volume of methanol and 25 μL IS in a 1.5 mL EP tube. Then the mixture was vortexed for 100 seconds and centrifuged at 12,000 rpm for 10 min at 4°C. The supernatant was transferred to another EP tube and evaporated to dryness under a nitrogen vacuum. The residue was reconstituted with 100 μL of 50% methanol and centrifuged at 15,000 rpm for 15 min. Then the supernatant was transferred to sample vials for the LC-MS analysis.
(§4) A Vanquish UHPLC™ system (Thermo Fisher Scientific Inc., USA) was used for the analysis. Samples were separated on an Atlantis T3 column (4.6 mm × 150 mm, 3 μm; Waters, USA). The column temperature was 40°C. The mobile phase, at 0.4 mL/min, consisted of water containing 0.1% formic acid (v/v, A) and methanol (B). The quantitative analysis gradient program was as follows: 0-1 min, 0 B; 1–6 min, 0–100% B; 6–12 min, 100% B; 12–12.1 min, 100%-0 B; 12.1–15 min, 0 B. The injection volume was 5 μL.
The mass spectrometer Q Exactive HF-X (Thermo Fisher Scientific Inc., USA) system was connected to the UHPLC system via heated electrospray ionization (HESI) and controlled by Xcalibur 4.2 software (Thermo Fisher) that was used for data collection and analysis. The mass spectrometer was operated in a negative ionization mode. The MS parameters were set as follows: probe heater temperature, 350°C; capillary temperature: 320°C; sheath gas (N2) flow rate: 30 arbs; auxiliary gas (N2) flow rate: 10 arbs; spray voltage: 3.2 kV (negative); S-Lens RF level: 55 V; scan mode: full MS (resolution 12000); scan range: m/z 150–1500. The most abundant ions in the spectra were selected for sensitive quantitation ([M-H]^−of chlorogenic acid, angoroside C, liquiritin, isoliquiritigenin, and IS, [M + COOH]^− of harpagide, swertiamarin, and sweroside). […]

Data set [2] can be described thus: Pharmacokinetic study in normal control (NC) mice after oral administration of SMYAD. Particulars: for AUC(0-t) / AUC(0-inf) / Cmax / half-life / Tmax: male, C57BL/6J. In kind it is in vivo, mouse. As to the method:
as §1, §2, §3, §4
The mass spectrometer Q Exactive HF-X (Thermo Fisher Scientific Inc., USA) system was connected to the UHPLC system via heated electrospray ionization (HESI) and controlled by Xcalibur 4.2 software (Thermo Fisher) that was used for data collection and analysis. The mass spectrometer was operated in a negative ionization mode. The MS parameters were set as follows: probe heater temperature, 350°C; capillary temperature: 320°C; sheath gas (N2) flow rate: 30 arbs; auxiliary gas (N2) flow rate: 10 arbs; spray voltage: 3.2 kV (negative); S-Lens RF level: 55 V; scan mode: full MS (resolution 12000); scan range: m/z 150–1500. The most abundant ions in the spectra were selected for sensitive quantitation ([M-H]^−of chlorogenic acid, angoroside C, liquiritin, isoliquiritigenin, and IS, [M + COOH]^− of harpagide, swertiamarin, and sweroside).
The pharmacokinetic parameters, including maximum plasma concentration (Cmax), time corresponding to Cmax (Tmax), terminal elimination half-life (T1/2), area under plasma concentration-time curve (AUC0–t) and area under the plasma concentration-time curve from 0 to infinity time (AUC0–∞), apparent volume of distribution (Vz/F) and clearance (CLz/F), were calculated using the noncompartment model in DAS 2.0 software package (Shanghai, China). GraphPad prism 6.02 (GraphPad Software, USA) was used in the statistical analysis. All values are expressed as mean ± standard error. For the pharmacokinetic parameter values of the NC and AS groups, Student's t-test was employed for data comparisons. P values <0.05 were considered statistically significant.

[3] abbreviates: AS mice, plasma, SMYAD intragastric 35 g/kg/d for seven days, mean ± SD, n = 5.
Where [4] appears, read: male, ApoE−/− on a C57BL/6 background, mouse, po, 35 g/kg/day, AS mice, plasma, SMYAD intragastric 35 g/kg/d for seven days, mean ± SD, n = 5, read-out: AUC0–t.
Setting [5] is: male, ApoE−/− on a C57BL/6 background, mouse, po, 35 g/kg/day, AS mice, plasma, SMYAD intragastric 35 g/kg/d for seven days, mean ± SD, n = 5, read-out: AUC0–∞.
The mark [6] stands for this setting: male, ApoE−/− on a C57BL/6 background, mouse, po, 35 g/kg/day, AS mice, plasma, SMYAD intragastric 35 g/kg/d for seven days, mean ± SD, n = 5, read-out: C max.
Where [7] appears, read: male, ApoE−/− on a C57BL/6 background, mouse, po, 35 g/kg/day, AS mice, plasma, SMYAD intragastric 35 g/kg/d for seven days, mean ± SD, n = 5, read-out: t 1/2 (converted).
Setting [8] is: male, ApoE−/− on a C57BL/6 background, mouse, po, 35 g/kg/day, AS mice, plasma, SMYAD intragastric 35 g/kg/d for seven days, mean ± SD, n = 5, read-out: t max.
Where [9] appears, read: NC mice, plasma, SMYAD intragastric 35 g/kg/d for seven days, mean ± SD, n = 5.
The mark [10] stands for this setting: mouse, po, 35 g/kg/day, NC mice, plasma, SMYAD intragastric 35 g/kg/d for seven days, mean ± SD, n = 5, read-out: AUC0–t.
[11] abbreviates: mouse, po, 35 g/kg/day, NC mice, plasma, SMYAD intragastric 35 g/kg/d for seven days, mean ± SD, n = 5, read-out: AUC0–∞.
Setting [12] is: mouse, po, 35 g/kg/day, NC mice, plasma, SMYAD intragastric 35 g/kg/d for seven days, mean ± SD, n = 5, read-out: C max.
Setting [13] is: mouse, po, 35 g/kg/day, NC mice, plasma, SMYAD intragastric 35 g/kg/d for seven days, mean ± SD, n = 5, read-out: t 1/2 (converted).
The mark [14] stands for this setting: mouse, po, 35 g/kg/day, NC mice, plasma, SMYAD intragastric 35 g/kg/d for seven days, mean ± SD, n = 5, read-out: t max.
Where [15] appears, read: male, ApoE−/− on a C57BL/6 background, mouse, in vivo, po, 35 g/kg/day.
Where [16] appears, read: mouse, in vivo, po, 35 g/kg/day.

Turning to `O=C(/C=C/c1ccc(O)c(O)c1)O[C@@H]1C[C@](O)(C(=O)O)C[C@@H](O)[C@H]1O` [Chlorogenic acid, chlorogenic acid], the CLz/F in data set [1] (setting [3]) was 13.49 ± 1.81^∗∗ L/h/mg; in data set [1] (AS mice, plasma, SMYAD intragastric 35 g/kg/d for seven days, mean ± SD, n = 5, listed as chlorogenic acid), 13.49 ± 1.81 L/h/mg; in data set [2] (setting [9]), 506200 ± 126000 µL/min/mg. For the same compound, the Vz/F came out at 302.49 ± 211.89 L/mg in data set [1] (setting [3]) and 247.01 ± 150.71 L/mg in data set [2] (setting [9]). The AUC(0-t) in data set [1] (setting [4]) is 1.56 ± 0.476 µg·h/mL; in data set [2] (setting [10]) it was 1.11 ± 0.419 µg·h/mL. Besides, the AUC(0-inf) was found to be 2.64 ± 0.323 µg·h/mL in data set [1] (setting [5]) and 1.26 ± 0.425 µg·h/mL in data set [2] (setting [11]). Moreover, the Cmax in data set [1] (setting [6]) amounted to 1.13 ± 0.97 µg/mL; in data set [2] (setting [12]) it was 0.267 ± 0.0724 µg/mL. Besides, the half-life was 21.6 ± 9.16 h in data set [1] (setting [7]) and 4.51 ± 1.1 h in data set [2] (setting [13]). In addition, the values for the Tmax in data set [1] (setting [8]) and in data set [2] (setting [14]) were 0.25 h and 1.13 ± 0.88 h, respectively.

Take `O=C(/C=C/c1ccc(O)cc1)c1ccc(O)cc1O` [Isoliquiritigenin, isoliquiritigenin]: the CLz/F was 62.16 ± 23.35^∗ L/h/mg in data set [1] (setting [3]); 62.16 ± 23.35 L/h/mg in data set [1] (AS mice, plasma, SMYAD intragastric 35 g/kg/d for seven days, mean ± SD, n = 5, listed as isoliquiritigenin); 558500 ± 73500 µL/min/mg in data set [2] (setting [9]). For the same compound, the Vz/F in data set [1] (setting [3]) is listed as 658.87 ± 555.51 L/mg; in data set [2] (setting [9]), 198.37 ± 58.53 L/mg. The AUC(0-t) in data set [1] (setting [4]) worked out at 0.502 ± 0.166 µg·h/mL; in data set [2] (setting [10]), 1.04 ± 0.144 µg·h/mL. The AUC(0-inf) in data set [1] (setting [5]) was 0.654 ± 0.251 µg·h/mL; in data set [2] (setting [11]), 1.06 ± 0.144 µg·h/mL. In addition, the Cmax in data set [1] (setting [6]) turned out to be 0.135 ± 0.102 µg/mL; in data set [2] (setting [12]), 0.175 ± 0.049 µg/mL. In addition, the values for the half-life in data set [1] (setting [7]) and in data set [2] (setting [13]) were 6.01 ± 2.32 h and 6.65 ± 1.31 h, respectively. Further, the results for the Tmax in data set [1] (setting [8]) and in data set [2] (setting [14]) were 0.95 ± 0.6 h and 1.9 ± 2.13 h, respectively.

In data set [1] (male, ApoE−/− on a C57BL/6 background, mouse, in vivo), `O=C1C[C@@H](c2ccc(O[C@@H]3O[C@H](CO)[C@@H](O)[C@H](O)[C@H]3O)cc2)Oc2cc(O)ccc21` [Liquiritin, liquiritin] returned a CLz/F of 67.62 ± 33.62 L/h/mg. In data set [1] (setting [15]), the AUC(0-inf) worked out at 0.482 ± 0.137 µg·h/mL, the AUC(0-t) stood at 0.408 ± 0.115 µg·h/mL, the Cmax was determined as 0.0676 ± 0.0336 µg/mL and the Tmax stood at 0.75 ± 0.69 h. Moreover, the half-life in data set [1] (setting [15]) is 13.5 ± 3.57 h. Also, the Vz/F in data set [1] (setting [16]) stood at 887.57 ± 397.82 L/mg. Moreover, in data set [2] (setting [16]), the AUC(0-inf) was found to be 0.76 ± 0.334 µg·h/mL, the AUC(0-t) amounted to 0.607 ± 0.229 µg·h/mL, the Cmax turned out to be 0.132 ± 0.0571 µg/mL and the Tmax came out at 0.75 ± 0.63 h. Also, in data set [2] (setting [16]), the half-life is 17 ± 3.43 h, the CLz/F amounted to 979000 ± 515700 µL/min/mg and the Vz/F stood at 565.81 ± 116.60 L/mg.

For the compound `C=C[C@H]1[C@H](O[C@@H]2O[C@H](CO)[C@@H](O)[C@H](O)[C@H]2O)OC=C2C(=O)OCC[C@H]21` [Sweroside, sweroside], in data set [1] (setting [15]), the AUC(0-inf) stood at 8.93 ± 2.12 µg·h/mL, the AUC(0-t) worked out at 7.5 ± 1.8 µg·h/mL, the Cmax is 1.59 ± 0.497 µg/mL and the Tmax amounted to 0.9 ± 0.64 h. This compound also gave a half-life in data set [1] (setting [15]) of 6.56 ± 2.75 h. In data set [1] (setting [16]), this compound registered a CLz/F of 4.29 ± 1.55 L/h/mg and a Vz/F of 29.99 ± 14.26 L/mg. Besides, in data set [2] (setting [16]), the AUC(0-inf) was 7.08 ± 0.39 µg·h/mL, the AUC(0-t) stood at 6.98 ± 0.382 µg·h/mL, the Cmax stood at 1.79 ± 0.369 µg/mL and the Tmax turned out to be 0.4 ± 0.3 h. Also, in data set [2] (setting [16]), the half-life was 3.81 ± 0.56 h, the CLz/F stood at 82700 ± 4670 µL/min/mg and the Vz/F is 16.99 ± 3.78 L/mg.
